# Biological target: T1, FAK Kinase Domain (KD) (Homo sapiens, UniProt Q05397)
# T1 construct: FAK Kinase Domain (KD) from baculo Sf9 was used; made in house; host or cells: baculovirus / Sf9 insect cells
# Assay: IC50 determination for inhibitors of FAK (ELISA-type assay)
# Format: biochemical
# Details: FAK kinase domain from baculo Sf9, biotinylated FAK-397 peptide, 10 μM ATP, 30 min, read-out: IC50 FAK inhibition
# T1 sequence (Q05397 422-680 limits assumed, species assumed): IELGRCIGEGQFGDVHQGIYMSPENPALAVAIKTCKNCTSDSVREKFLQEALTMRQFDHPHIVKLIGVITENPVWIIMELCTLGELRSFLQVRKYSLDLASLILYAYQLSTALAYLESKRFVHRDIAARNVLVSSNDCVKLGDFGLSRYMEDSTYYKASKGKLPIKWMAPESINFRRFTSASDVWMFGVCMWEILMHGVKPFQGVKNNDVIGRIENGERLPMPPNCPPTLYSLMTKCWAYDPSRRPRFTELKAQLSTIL
row,Compound,IC50 [nM]
1,"O=C(Nc1ccc(N2CCOCC2)c(F)c1)c1c(NCc2ccccn2)cc[nH]c1=O [Example 1, 2-Oxo-4-[(pyridin-2-ylmethyl)-amino]-1,2-dihydro-pyridine-3-carboxylic acid(3-fluoro-4-morpholin-4-yl-phenyl)-amide]",143
2,"O=C(Nc1cccc(N2CCCC2)c1)c1c(NC[C@@H](O)c2ccccc2)cc[nH]c1=O [Example 2d, 4-((S)-2-Hydroxy-2-phenyl-ethylamino)-2-oxo-1,2-dihydro-pyridine-3-carboxylic acid (3-pyrrolidin-1-yl-phenyl)-amide]",93
3,"COc1ccc(NC(=O)c2c(NCCc3cccnc3)cc[nH]c2=O)cc1N1CCN(C)CC1 [Example 6aa, 2-Oxo-4-(2-pyridin-3-yl-ethylamino)-1,2-dihydro-pyridine-3-carboxylic acid [4-methoxy-3-(4-methyl-piperazin-1-yl)-phenyl]-amide]",216

# Tested on: HCT 116 cells
# Assay: CellTiter-Glo assay in HCT 116 cells (antiproliferative activity)
# Format: cell-based
# Details: Homo sapiens, HCT-116, 120 h, CellTiter-Glo cell viability, HCT 116 human colon carcinoma, 5 days (120 h) incubation
# Text: Antiproliferative Activity:
# CellTiter-Glo™ Assay in HCT 116 Cells:
# The CellTiter-Glo™ Luminescent Cell Viability Assay (Promega) is a homogeneous method of determining the number of viable cells in culture based on quantitation of the ATP present, which signals the presence of metabolically active cells.
# HCT 116 cells (human colon carcinoma, ATCC-No. CCl-247) were cultivated in RPMI 1640 medium with GlutaMAX• I (Invitrogen, Cat-No. 61870-010), 5% Fetal Calf Serum (FCS, Sigma Cat-No. F4135 (FBS)); 100 Units/ml penicillin/100 μg/ml streptomycin (=Pen/Strep from Invitrogen Cat. No. 15140). For the assay the cells were seeded in 384 well plates, 1000 cells per well, in the same medium. The next day the test compounds were added in various concentrations ranging from 30 μM to 0.0015 μM (10 concentrations, 1:3 diluted). After 5 days the CellTiter-Glo™ assay was done according to the instructions of the manufacturer (CellTiter-Glo™ Luminescent Cell Viability Assay, from Promega). In brief: the cell-plate was equilibrated to room temperature for approximately 30 minutes and than the CellTiter-Glo™ reagent was added. The contents were carefully mixed for 15 minutes to induce cell lysis. After 45 minutes the luminescent signal was measured in Victor 2, (scanning multiwell spectrophotometer, Wallac).
# 1st. Day: • Medium: RPMI 1640 with GlutaMAX™ I (Invitrogen, Cat-Nr. 61870), 5% FCS (Sigma Cat.-No. F4135), Pen/Strep (Invitrogen, Cat No. 15140). • HCT116 (ATCC-No. CC1-247): 1000 cells in 60 μl per well of 384 well plate (Greiner 781098, μClear-plate white) • After seeding incubate plates 24 h at 37° C., 5% CO2
# 2nd. Day: Induction (Treatment with Compounds, 10 Concentrations):
# In order to achieve a final concentration of 30 μM as highest concentration 3.5 μl of 10 mM compound stock solution were added directly to 163 μl media. Then step e) of the dilution procedure described below, was followed.
# In order to achieve the second highest to the lowest concentrations, a serial dilution with dilution steps of 1:3 was followed according to the procedure (a-e) as described here below: • a) for the second highest concentration add 10 μl of 10 mM stock solution of compound to 20 μl dimethylsulfoxide (DMSO) • b) dilute 8×1:3 (always 10 μl to 20 μl DMSO) in this DMSO dilution row (results in 9 wells with concentrations from 3333.3 μM to 0.51 μM) • c) dilute each concentration 1: 47.6 (3.5 μl compound dilution to 163 μl media) • d) add 10 μl of every concentration to 60 μl media in the cell plate resulting in final concentration of DMSO: 0.3% in every well and resulting in 10 final concentration of compounds ranging from 30 μM to 0.0015 μM. • Each compound is tested in triplicate. • Incubate 120 h (5 days) at 37° C., 5% CO2 […]
# Add 30 μl CellTiter-Glo™ Reagent (prepared from CellTiter-Glo™ Buffer and CellTiter-Glo™ Substrate (lyophilized) purchased from Promega) per well, shake 15 minutes at room temperature incubate further 45 minutes at room temperature without shaking
# Victor 2 scanning multiwell spectrophotometer (Wallac), Luminescence mode (0.5 sec/read, 477 nm) Determine IC50 using a non-linear curve fit (XLfit software (ID Business Solution Ltd., Guilford, Surrey, UK))
row,Compound,IC50 [µM]
1,"O=C(Nc1ccc(N2CCOCC2)c(F)c1)c1c(NCc2ccccn2)cc[nH]c1=O [Example 1, 2-Oxo-4-[(pyridin-2-ylmethyl)-amino]-1,2-dihydro-pyridine-3-carboxylic acid(3-fluoro-4-morpholin-4-yl-phenyl)-amide]",7.46
2,"CC(CNc1cc[nH]c(=O)c1C(=O)Nc1ccc(N2CCN(C)CC2)cc1)c1ccccc1 (stereo not shown) [Example 6ae, 2-Oxo-4-(2-phenyl-propylamino)-1,2-dihydro-pyridine-3-carboxylic acid [4-(4-methyl-piperazin-1-yl)-phenyl]-amide]",0.5 to 15
3,"CC(CNc1cc[nH]c(=O)c1C(=O)Nc1cccc(N2CCOCC2)c1)c1ccccc1 (stereo not shown) [Example 6g, 2-Oxo-4-(2-phenyl-propylamino)-1,2-dihydro-pyridine-3-carboxylic acid (3-morpholin-4-yl-phenyl)-amide]",0.5 to 15
4,"COc1ccc(NC(=O)c2c(NCCc3ccccc3)cc[nH]c2=O)cc1N1CCN(C)CC1 [Example 6i, 2-Oxo-4-phenethylamino-1,2-dihydro-pyridine-3-carboxylic acid [4-methoxy-3-(4-methyl-piperazin-1-yl)-phenyl]-amide]",0.5 to 15
5,"COc1ccc(NC(=O)c2c(NCC(C)c3ccccc3)cc[nH]c2=O)cc1N1CCN(C)CC1 (stereo not shown) [Example 6j, 2-Oxo-4-(2-phenyl-propylamino)-1,2-dihydro-pyridine-3-carboxylic acid [4-methoxy-3-(4-methyl-piperazin-1-yl)-phenyl]-amide]",0.5 to 15
6,"COc1ccc(NC(=O)c2c(NC3CCCCC3)cc[nH]c2=O)cc1N1CCN(C)CC1 [Example 6m, 4-Cyclohexylamino-2-oxo-1,2-dihydro-pyridine-3-carboxylic acid [4-methoxy-3-(4-methyl-piperazin-1-yl)-phenyl]-amide]",0.5 to 15
7,"COc1ccc(NC(=O)c2c(NCCc3cccc(Cl)c3)cc[nH]c2=O)cc1N1CCN(C)CC1 [Example 6o, 4-[2-(3-Chloro-phenyl)-ethylamino]-2-oxo-1,2-dihydro-pyridine-3-carboxylic acid [4-methoxy-3-(4-methyl-piperazin-1-yl)-phenyl]-amide]",0.5 to 15
8,"O=C(Nc1ccc(N2CCOCC2)cc1)c1c(NCc2ccccn2)cc[nH]c1=O [Example 6r, 2-Oxo-4-[(pyridin-2-ylmethyl)-amino]-1,2-dihydro-pyridine-3-carboxylic acid (4-morpholin-4-yl-phenyl)-amide]",0.5 to 15
9,"CSc1cccc(NC(=O)c2c(NCc3ccccn3)cc[nH]c2=O)c1 [Example 6s, 2-Oxo-4-[(pyridin-2-ylmethyl)-amino]-1,2-dihydro-pyridine-3-carboxylic acid (3-methylsulfanyl-phenyl)-amide]",0.5 to 15
10,"O=C(Nc1cccc(CN2CCCCC2)c1)c1c(NCCc2ccccc2)cc[nH]c1=O [Example 6t, 2-Oxo-4-phenethylamino-1,2-dihydro-pyridine-3-carboxylic acid (3-piperidin-1-ylmethyl-phenyl)-amide]",0.5 to 15
11,"CC(CNc1cc[nH]c(=O)c1C(=O)Nc1cccc(CN2CCCCC2)c1)c1ccccc1 (stereo not shown) [Example 6u, 2-Oxo-4-(2-phenyl-propylamino)-1,2-dihydro-pyridine-3-carboxylic acid (3-piperidin-1-ylmethyl-phenyl)-amide]",0.5 to 15
12,"CC(CNc1cc[nH]c(=O)c1C(=O)Nc1cccc(CN2CCCC2)c1)c1ccccc1 (stereo not shown) [Example 6v, 2-Oxo-4-(2-phenyl-propylamino)-1,2-dihydro-pyridine-3-carboxylic acid (3-pyrrolidin-1-ylmethyl-phenyl)-amide]",0.5 to 15
13,"O=C(Nc1cccc(CN2CCCC2)c1)c1c(NCCc2ccccc2)cc[nH]c1=O [Example 6w, 2-Oxo-4-phenethylamino-1,2-dihydro-pyridine-3-carboxylic acid (3-pyrrolidin-1-ylmethyl-phenyl)-amide]",0.5 to 15
